Experimental data: PubChem BioAssay (NCI)
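Cultured in 96-well plates, cells were exposed to test compound for 48 hours across five concentrations. GI50: concentration for 50% inhibition of growth. The concentration for full growth arrest is given as TGI.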 Where a SMILES comes first, the peptide text is derived from it. [ ]: non-standard residue; d: D form. Phe(F5) = N[CH](Cc1c(F)c(F)c(F)c(F)c1F)C(=O)O

Tests used:
Assay in all cases: NCI tumour cell line growth inhibition, 48 h
[1] = test system: MDA-N
[2] = test system: SNB-78 CNS
[3] = test system: DMS 273 small cell lung
[4] = test system: DMS 114 small cell lung
[5] = test system: XF 498 CNS
[6] = test system: RXF-631 renal
[7] = test system: KM20L2 colon
[8] = test system: HOP-18 NSCLC
[9] = test system: LXFL 529 NSCLC

SMILES	TGI [1] [µM]	TGI [2] [µM]	TGI [3] [µM]	TGI [4] [µM]	TGI [5] [µM]	TGI [6] [µM]	TGI [7] [µM]	TGI [8] [µM]	TGI [9] [µM]	GI50 [2] [µM]	GI50 [7] [µM]	GI50 [3] [µM]	GI50 [8] [µM]	GI50 [4] [µM]	GI50 [9] [µM]	GI50 [5] [µM]
CC(C)(C(=O)NN)c1ccccc1	> 100															
CN(C)c1ccc2c(NCCCCCCNc3ccnc4cc(N(C)C)ccc34)ccnc2c1		> 100	21.3	66.6	11.9	> 100										
CC(=O)OC1c2ccccc2CC2(OC(C)=O)c3ccccc3C12 (stereo unspecified)	> 100															
O=C(NCCCCCCNC(=O)c1cccc2ccccc12)c1cccc2ccccc12		48.9	3.46	> 100	9.97	> 100	> 100	76.8	> 100							
C=C1C(=O)OC2CC3(C)C=CC(=O)C(=C)C3CC12 (stereo unspecified)		14	2.64	9.57	3.35		6.88	8.77	1.93							
O=C(CC1Sc2ccccc2NC1=O)Nc1cc(Cl)ccc1Cl (stereo unspecified)		> 100	> 100	> 100		> 100	> 100		> 100							
O=C(CCn1[nH]c(=O)c(Cl)c(Cl)c1=O)NOCCCc1ccccc1		> 100	> 100		> 100	> 100	> 100	> 100	> 100							
COC(=O)CCC(=O)N1Cc2cc(C)ccc2N(C(=O)CCC(=O)OC)Cc2cc(C)ccc21		> 100	> 100		> 100			> 100								
Cn1c(=O)c2[nH]c(/N=N/N3CCN(CCO)CC3)nc2n(C)c1=O	> 100															
C=C(C)[C@@H]1CC=C(CO)CC1	> 10	988		709	680	1210	945		1320							
CC(=O)[O][Pb]([O]C(C)=O)([c]1ccccc1)[c]1ccccc1		7.63	> 100	4.16			> 100	> 100	> 100	1.45	9.34	2.88	6.5	1.44	5.57	
CCC[CH2][Sn]([CH2]CCC)([O]C(C)=O)[O]C(C)=O		2.33	7.04		2.49		3.81	2.72	1.24	0.511	1.9	2.19	1.42		0.241	1.21
Nc1ncnc2c1ccn2C1OC2COP(=O)(O)OC2C1O (stereo unspecified)	11.1															
CC(=O)/C(=C\c1ccco1)C(=O)Nc1ccccc1		> 100		> 100	> 100			> 100	> 100							
COC(=O)[C@@H]1CSC(=S)N1C(=O)C[C@H]1CC=CC[C@H]1CC(=O)Sc1ccccc1		49.2	44.1		34.5		39	61.1	30.5							
COC(=O)C(CC(C)C)NC(=O)C(Cc1cnc[nH]1)NC(=O)CNC(=O)C(NC(=O)C(C)NC(=O)C(Cc1c[nH]c2ccccc12)NC(=O)C(CCC(=O)O)NC(=O)C(N)Cc1c(F)c(F)c(F)c(F)c1F)C(C)C (stereo unspecified) (H-[Phe(F5)]EWAVGHL-OMe; configuration not given here)	> 12.5	> 100	> 100	> 100	> 100		> 100	> 100	> 100							
